What was measured:
[1] = Demetallation of model mixture (DAO + NiETIO + OEPVO): catalysed oxidation, metal removal, residual nickel by X-ray fluorescence; details: by mass
Source text: (§1) Le procédé de démétallation selon l'invention a été testé sur un mélange modèle de fractions pétrolières lourdes, composé d'un produit pétrolier ne contenant pas de nickel ni de vanadium, auxquelles ont été ajoutées des porphyrines modèles de nickel et de vanadium (exemples 1 à 4, 6 et 7).
(§2) La fraction pétrolière utilisée dans les exemples (DAO) est une huile désasphaltée au solvant, issue d'un résidu sous vide du brut Safaniya d'Arabie Saoudite. Il s'agit donc d'un résidu sous vide dépourvu d'asphaltènes, et donc de pétroporphyrines, pauvre en nickel (<0,2 ppm) et en vanadium (<0,1 ppm).
(§3) Les porphyrines modèles utilisées sont l'étioporphyrine de nickel (NiETIO) et l'octaéthylporphyrine de vanadyle (OEPVO), qui sont disponibles commercialement. Leurs formules sont les suivantes : [drawing 5] […]
(§4) Les différentes fractions sont ensuite évaporées afin de recueillir la fraction pétrolière de 2,02 g (soit un bilan matière de 97 %) qui est ensuite analysée par spectrométrie à fluorescence X pour en déceler 31 ppm de nickel et 54 ppm de Vanadium. […]
(§5) Les différentes fractions sont ensuite évaporées afin de recueillir la fraction pétrolière avec un bilan matière de 97% (en masse) et des teneurs en Nickel et Vanadium analysées par spectrométrie à fluorescence X de moins de 10 ppm (en masse). […]

[2] = Demetallation of model mixture (DAO + NiETIO + OEPVO): catalysed oxidation, metal removal, residual vanadium by X-ray fluorescence; details: by mass
Source text: as §1, §2, §3, §4, §5

For Clc1cccc(Cl)c1-c1c2nc(c(-c3c(Cl)cccc3Cl)c3ccc([n-]3)c(-c3c(Cl)cccc3Cl)c3nc(c(-c4c(Cl)cccc4Cl)c4ccc1[n-]4)C=C3)C=C2.[Mn+2] [Exemple 4, méso-tétra-(2,6-dichloro) phényl porphyrinede manganèse], which “Après traitement Ni Taux d'élimination” value [1] is on record?
The value was 93,8%.

And the “Après traitement V Taux d'élimination” value [2]?
Its value is 96,1%.

Source: EP1939270B1, “Demetallation of oil and hydrocarbon cuts and use of same” (TOTAL RAFFINAGE MARKETING, priority 2006, dated 2008)
